Measurements as given in patent US20130178479A1, “PHARMACEUTICAL COMBINATIONS” (NOVARTIS AG, priority 2010, published 2013).
Like-named read-outs stand apart in the source and are kept apart here.

Experiments:
[1] = test system: NCI-H23 human non-small cell lung cancer cells; assay: Cell proliferation assay (CellTiter-Glo) in NCI-H23; format: cell-based; conditions: for IC50: Homo sapiens
Procedure: (§1) Celt Proliferation Assay: Cell viability was determined by measuring cellular ATP content using the CellTiter-Glo® Luminescent Cell Viability Assay (Promega #G7573) according to manufacturer's protocol. Briefly, 1500-50000 cells were plated on either 384 or 96 well plates in 30 μl (384 well) or 100 μl (96 well) growth media, cells were: allowed to attach overnight and followed by 72 hrs of incubation with various concentration of drugs or drug combinations (10 μl per well in 384 well plates), at the end of the drug treatment, 30 μl of the CellTiter-Glo regent were added to each well (384 well plates) to lyse the cell, and luminescence signals were recorded on a Envision plate reader.
(§2) Method for calculating the effect of the Combination: To evaluate the everolimus and Compound A combination effect in a non-bias way and to identify synergistic effect at all possible concentrations, the combination studies were conducted with a “dose matrix”, where a combination is tested in all possible permutations of serially-diluted everolimus and Compound A single agent doses, in all combination assays, compounds were applied simultaneously. Single agent dose responding curves, IC50, IC90, and the Synergy are all analyzed using Chalice software (CombinatoRx, Cambridge, Mass.). Synergy was calculated by comparing a combination's response to those of its single agents, against the drug-with-itself dose-additive reference model. Deviations from dose additivity can be assessed visually on an Isobologram or numerically With a Combination Index. Excess inhibition compare to additivity can also be plotted as a full dose-matrix chart to capture where the synergies occur. To quantify the overall strength of combination effects, a volume score VHSA=ΣXYInfXInfY(Idata−IHSA) is also calculated between the data and the highest-single-agent surface, normalized for single agent dilution factors fX,fY[ref].
The experiment setup is identical to the p4EBP1 high content assay as used for the NCI-H23 cell model, (FIG. 5). And the same “doss matrix” (everolimus; 5 dose, 4×, 1.2 μM to 5 nM, Compound A: 9 dose, 2×, 1.2 μM to 5 nM) was applied.
Another experiment was conducted to evaluate the combination effect using cell titer glow (CTG) assay, this time, cells were plated in 384 well plates at 1000 cells/well in triplicates, and treated with compound for 72 hours before the measurement (FIG. 6). in this extended “dose matrix” study, everolimus was subjected to a 11 dose 4× serial dilution with the highest dose at 1 uM and the low dose at about 1 pM, and Compound A was subjected to a 9 dose 4× serial dilution with high dose at 1 μM and low dose at about 16 pM.

[2] = test system: MDA-MB-361 Human Breast Cancer cells; assay: Cell proliferation assay (CellTiter-Glo) in MDA-MB-361; format: cell-based; conditions: for IC50: Homo sapiens
Procedure: as §1
The cells were plated at 2000 cells/well in […] in triplicates, and treated with compound for 72 hrs prior to the measurement. The following “dose matrix”, everolimus: 8 dose, 2×, 2000 nM to 15 nM, Compound A: 8 dose, 2×, 2 μM to 15 nM, was applied.

[3] = test system: SK-BR3 Human Breast Cancer cells; assay: Cell proliferation assay (CellTiter-Glo) in SK-BR3; format: cell-based; conditions: for IC50: Homo sapiens, SK-BR-3
Procedure: as §1
The cells were plated at 2000 cells/well in 96 well plates in triplicates, and treated with compound for 72 hrs prior to the measurement. The following dose matrix, everolimus: 8 dose, 2×, […] to 15 nM, Compound A: 8 dose, 2×, 2 μM to 15 nM, was applied.

[4] = test system: six cell lines from various tissue lineages; assay: Antiproliferative effect of combinations, summary over six cell lines; format: cell-based, human; conditions: depends on the cell types
Procedure: as §1
Method for calculating the effect of the Combination: To evaluate the everolimus and Compound A combination effect in a non-bias way and to identify synergistic effect at all possible concentrations, the combination studies were conducted with a “dose matrix”, where a combination is tested in all possible permutations of serially-diluted everolimus and Compound A single agent doses, in all combination assays, compounds were applied simultaneously. Single agent dose responding curves, IC50, IC90, and the Synergy are all analyzed using Chalice software (CombinatoRx, Cambridge, Mass.). […] Deviations from dose additivity can be assessed visually on an Isobologram or numerically With a Combination Index. […]

PI3K/mTOR = conditions: cited from earlier work
[5] = test system: p4EBP1 T37/46 in MFE296 cells; assay: High content p4EBP1 T37/46 assay in MFE296 cells; format: cell-based, human; conditions: for IC50 / IC90: Homo sapiens, MFE-296
Procedure: Automated imaging assay (or High-Content assay) for pS6 S240/244 and p4EBP1 T37/46: 2-4×10^3 cells were seeded in clear-bottom 384-well black plates (Greiner #781091) in 30 μl per well growth media 24 hours prior to treatment Compounds were added to the cell in 10 μl growth media and incubated overnight; the cells were then fixed by addition of 10 μl per well Mirsky's fixative (National Diagnostics #HS-102) for 1 hour, washed seven times with 30 μl/well TBS buffer using a BioTek plate washer, and blocked with 100 μl/well blocking buffer (TBS with 0.1% BSA and 0.1% Triton X-100). The anti-Ser 240/244 -RPS6 antibody (CST #4838, 1:150 dilution) or anti-Thr 37/46-p4EBP1 antibody (CST #2855, 1:150 dilution) were then incubated overnight at 4° C. After seven times wash with TBS, the cells were stained with Cy5-conjugated goat-anti-rabbit IgG 2nd antibody (Millipore #AP187S, 1:150 dilution) and DNA staining dye Neediest 33342 for 1.5 hours. The phospho-S6 and phospho-4EBP1 signals were-imaged using InCell 1000 Analyzer (BN_staining—10×protocol) at 10× magnification, 3 fields per well after seven times wash with TBS. For Hoechst 33342 signal; the excitation and emission wave lengths are 360 nm (D360—40× filter) and […] (HQ460—40M filter), respectively, and for Cy5, 620 nm (HQ620—60× filter) for both the excitation and emission wave lengths. Analysis of the images was done using the InCell Investigator software.
as §2
p4EBP1 signal. […] The cells were plated at 4000 cells/well in 384 well plates in duplicates, and treated with compound for 18 hrs before the measurement (FIG. 7).

[6] = test system: MFE296 human endometrial cancer cells; assay: Cell proliferation assay (CellTiter-Glo) in MFE296; format: cell-based; conditions: for Amax: single agent
Procedure: as §1, §2
The experiment setup is identical to the p4EBP1 assay as described above for the MFE296 cancer cell model. (FIG. 8). And the same “dose matrix” (everolimus: 11 dose, 4', 500 nM to 0.5 pM, Compound A; 9 dose, 4×, 1 μM to 16 nM) was applied.

[7] = NCI-H23, 72 h, single agent, extended dose matrix, 72 hours (FIG. 6), read-out: IC50, inhibition of cell growth
[8] = single agent, dose matrix 1.2 μM to 5 nM (FIG. 5)
[9] = single agent, extended dose matrix, 72 hours (FIG. 6)
[10] = single agent, MDA-MB-361, 72 hrs
[11] = single agent, SK-BR3, 72 hrs, read-out: IC50, inhibition of cell growth

Cn1c(=O)n(-c2ccc(C(C)(C)C#N)cc2)c2c3cc(-c4cnc5ccccc5c4)ccc3ncc21 [Compound A, 2-methyl-2-[4-(3-methyl-2-oxo-8-quinolin-3-yl-2,3-dihydro-imidazo[4,5-c]quinolin-1-yl)-phenyl]-propionitrile]
IC50 [1, 7]: 80 nM
IC50 ([1]; NCI-H23, in combination with 5 nM everolimus, read-out: IC50 for Compound A, cell growth): 10 nM
IC50 ([1]; NCI-H23, single agent, dose matrix 1.2 μM to 5 nM (FIG. 5), read-out: IC50, inhibition of cell growth): 78 nM
Amax, the maximum fraction of inhibition [1, 8]: 0.7
growth inhibition compare to DMSO control (at Amax) [1, 8]: 70%
Amax [1, 9]: 0.7
reduction on IC50 of Compound A, cell growth ([1]; with 5 nM everolimus vs Compound A alone): 8 fold
full effective dose range of Compound A ([2]; Compound A alone, MDA-MB-361): 120 nM
IC50 ([2]; concomitant everolimus, MDA-MB-361, read-out: IC50 for Compound A, cell growth): < 15 nM
IC50 ([2]; single agent, MDA-MB-361, 72 hrs, read-out: IC50, inhibition of cell growth): ~60 nM
Amax [2, 10]: 0.81
full effective dose range of Compound A ([2]; with low dose everolimus, MDA-MB-361): < 15 nM
full effective dose range of Compound A ([3]; Compound A alone, SK-BR3): 120 nM
IC50 ([3]; concomitant everolimus, SK-BR3, read-out: IC50 for Compound A, cell growth): < 15 nM
IC50 [3, 11]: ~31 nM
Amax ([3]; single agent, SK-BR3, 72 hrs): 0.67
full effective dose range of Compound A ([3]; with low dose everolimus, SK-BR3): < 15 nM
enhancement of the potency of Compound A by everolimus [4]: 5-100 fold
concentration at which mTOR inhibition predominates (PI3K/mTOR; low concentration): less than 100 nmol/L
concentration at which dual PI3K/mTOR inhibition is observed (PI3K/mTOR; relatively higher concentrations): approximately 500 nmol/L
IC50 ([5]; in presence of trace amount of everolimus, MFE296, read-out: IC50 for Compound A, p4EBP1 signal): 0.24 nM
IC90 ([5]; in presence of trace amount of everolimus, MFE296, read-out: IC90 for Compound A, p4EBP1 signal): 4 nM
IC50 ([5]; single agent, MFE296, 18 hrs, read-out: IC50, reduction of p4EBP1 signal): 16 nM
IC90 ([5]; single agent, MFE296, 18 hrs, read-out: IC90, reduction of p4EBP1 signal): ~100 nM
full effective dose of Compound A ([6]; Compound A alone): 250 nM
IC50 ([6]; Homo sapiens, MFE-296, single agent, read-out: IC50, inhibition of cell growth): 78 nM
Amax [6]: 0.79
full effective dose of Compound A ([6]; with trace amount (picomolar) of everolimus): close to sub-nanomolar range

CO[C@H]1C[C@@H]2CC[C@@H](C)[C@@](O)(O2)C(=O)C(=O)N2CCCC[C@H]2C(=O)O[C@H]([C@H](C)C[C@@H]2CC[C@@H](OCCO)[C@H](OC)C2)CC(=O)[C@H](C)/C=C(\C)[C@@H](O)[C@@H](OC)C(=O)[C@H](C)C[C@H](C)/C=C/C=C/C=C/1C [everolimus, 40-O-(2-hydroxyethyl)-rapamycin, reference compound]
IC50 [1, 7]: > 1000 nM
Amax, the maximum fraction of inhibition [1, 8]: 0.3
IC50, inhibition of cell growth [1, 8]: never achieved an IC50
Amax [1, 9]: 0.3
Amax [2, 10]: < 0.50
IC50 [3, 11]: < 15 nM
Amax ([3]; single agent, SK-BR3, 72 hrs): 0.50
p4EBP1 signal reduction ([5]; single agent, all concentrations tested 0.5 pM-500 nM, MFE296): approximately 20%
Amax [6]: 0.6
